Earlier results, collected in US11103473B2, “Treatment and prevention of autism and autism spectrum disorders” (ASDERA LLC, priority 2013, dated 2021).
Like-named read-outs stand apart in the source and are kept apart here.

What was measured:
[1] = for ulcerative index (UI): equimolar dose, prodrug vs parent NSAID
Mouse: writhing = settings: relative to parent
[2] = not given; remark: listed apart in the source
[3] = prodrug vs parent DCF
[4] = not given; remark: listed apart in the source
[5] = pH 7.1
[6] = not given; remark: listed apart in the source
albumin = albumin (Homo sapiens, UniProt P02768)
albumin, sequence (P02768 25-609): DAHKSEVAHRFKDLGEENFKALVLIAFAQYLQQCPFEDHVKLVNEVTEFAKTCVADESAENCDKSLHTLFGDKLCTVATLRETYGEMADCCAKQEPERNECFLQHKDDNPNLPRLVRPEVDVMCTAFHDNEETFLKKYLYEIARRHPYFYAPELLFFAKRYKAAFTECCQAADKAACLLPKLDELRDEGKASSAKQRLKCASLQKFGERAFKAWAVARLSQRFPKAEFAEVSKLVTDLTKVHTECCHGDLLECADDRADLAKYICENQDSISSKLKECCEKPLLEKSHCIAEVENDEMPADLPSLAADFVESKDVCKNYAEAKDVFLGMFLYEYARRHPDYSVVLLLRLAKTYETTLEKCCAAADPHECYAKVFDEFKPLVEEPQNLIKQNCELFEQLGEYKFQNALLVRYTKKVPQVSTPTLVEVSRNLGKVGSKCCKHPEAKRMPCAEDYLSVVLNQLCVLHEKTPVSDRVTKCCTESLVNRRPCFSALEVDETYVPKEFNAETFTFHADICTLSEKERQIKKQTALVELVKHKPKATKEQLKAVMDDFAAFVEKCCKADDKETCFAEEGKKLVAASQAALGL

[7] = for Cmax (μg/ml) / Tmax (h) / % excreted (5 d) / t1/2 (h): mean; for Cmax (μg/ml) / Tmax (h): Ito (1994); for % excreted (5 d): Sato (1997)
[8] = system: animal models of seizures; settings: in vivo
[9] = relative to parent, animal models

CC(C)Cc1ccc(C(C)C(=O)O)cc1 (stereo not shown) [ibuprofen, 2-[4-(2-methylpropyl)phenyl]propanoic acid]
ulcerative index (UI) [1]: 45.8

Cc1cccc(Nc2ccccc2C(=O)OCc2c(C(C)C)c(=O)n(-c3ccccc3)n2C)c1C [MFA-PPA Without spacer]
Rat: Hint paw vs MFA (Rat: Hint paw; @2-6 h): ≈60%
Mouse: writhing vs MFA (Mouse: writhing): 63%
t1/2 [h] pH 1.2 (SGF) (simulated gi fluid): 18.7 h
half-life in simulated gastric fluid (simulated gi fluid, pH 1.2): 18.69 h
half-life in simulated intestinal fluid ([2]; simulated gi fluid, pH 7.4): 8.98 h
t1/2 [h] pH 7.5 (SIF) ([2]; simulated gi fluid): 9.0 h
GI risk vs MFA ([1]; in vivo): 30%
average number of ulcers ([1]; in vivo): 1.00

CC(C)c1c(CO)n(C)n(-c2ccccc2)c1=O [HMP, 3-hydroxymethyl propyphenazon]
average number of ulcers ([1]; in vivo): 1.25

Cc1ccc(C(C)C)c(OC(=O)c2ccccc2Nc2cccc(C)c2C)c1 [MFA-thymol]
Rat: Hint paw vs MFA (Rat: Hint paw; relative to parent): 125%
Mouse: writhing vs MFA (Mouse: writhing): 150%
t1/2 [h] pH 1.2 (SGF) (simulated gi fluid): 23.1 h
t1/2 [h] pH 7.5 (SIF) ([2]; simulated gi fluid): 7.1 h
ulcer index vs parent drug ([1]; in vivo): better ulcer index than the parent drug
GI risk vs MFA [1, 9]: 60%

O=C(O)Cc1ccccc1Nc1c(Cl)cccc1Cl [DCF, 2-(2-[(2,6-dichlorophenyl)amino]phenyl)acetic acid]
Cmax [3]: 20.19 ± 6.01 µg/mL
gastric damage ([1]; 50 mg/kg): severe gastric damage
gastric damage ([1]; 200 mg/kg): markedly more damage

CC(=O)Oc1ccccc1C(=O)O [Aspirin, 2-(acetyloxy)benzoic acid]
ulcerative index (UI) [1]: 57.4

Cc1cccc(Nc2ccccc2C(=O)O[C@@H]2C[C@H](C)CC[C@H]2C(C)C)c1C [MFA-menthol]
Rat: Hint paw vs MFA (Rat: Hint paw; relative to parent): 115%
Mouse: writhing vs MFA (Mouse: writhing): 115%
t1/2 [h] pH 1.2 (SGF) (simulated gastric fluid): 20.8 h
t1/2 [h] pH 7.5 (SIF) ([2]; simulated intestinal fluid): 8.9 h
ulcer index vs parent drug ([1]; in vivo): better ulcer index than the parent drug
GI risk vs MFA [1, 9]: 50%

CC(=O)Nc1ccc(OC(=O)c2ccccc2Nc2cccc(C)c2C)cc1 [MFA-APAP Without spacer]
Rat: Hint paw vs MFA (Rat: Hint paw; relative to parent): “better”
t1/2 [h] pH 1.2 (SGF) (simulated gi fluid): “suffi-
t1/2 [h] pH 7.5 (serum/plasma) [4]: “shorter
GI risk vs MFA ([1]; in vivo): “no

Cc1cccc(Nc2ccccc2C(=O)O)c1C [MFA, 2-[(2,3-dimethylphenyl)amino]benzoic acid]
water solubility [5]: 0.004%
apparent volume of distribution (Vzss/F) ([6]; 500 mg oral dose): 1.06 L/kg
time of peak levels (PL) ([6]; adults): 2 h
steady-state concentrations ([6]; adults, 1 g 4x daily, reached on the 2nd day): 20 µg/mL
plasma PL ([6]; after a 1 g oral dose): 10 to 20 µg/mL
time to plasma PL ([6]; after a 1 g oral dose): 2 to 4 h
drug accumulation ([6]; after multiple doses): no evidence of drug accumulation
elimination half-life ([6]; in vivo): ~2 h and ≈ 2 h
fecal route of elimination, share of the dose ([6]; mainly unconjugated 3-carboxy MFA): ≤ 20%
dose excreted into the urine as glucuronide of ([6]; share of MFA dose per species): 6%
dose excreted into the urine ([6]; total, primarily as glucuronides): Approximately 52%
mean absorption ([6]; two 500 mg single oral dose studies): 30.5 µg/h/mL
bound to albumin (albumin): > 90%
Cmax ([7]; Healthy Adults (18-56 yr)): 10.0 µg/mL
Tmax ([7]; Healthy Adults (18-56 yr)): 2.0 h
t1/2 ([7]; Healthy Adults (18-56 yr)): 2 to 4 h
Cmax (μg/ml) ([7]; Preterm Children (0-5 d)): 3.8 (12) μg/ml
Tmax (h) ([7]; Preterm Children (0-5 d)): 8.0 (12) h
% excreted (5 d) ([7]; Preterm Children (0-5 d)): 16.6 (5) %
t1/2 (h) ([7]; Preterm Children (0-5 d), bottom: Sato (1997)): 27.0 (5) h
t1/2 (h) ([7]; Preterm Children (0-5 d), top: Ito (1994)): 21.7 (12) h
Cmax (μg/ml) ([7]; Preterm Children (6-22 d)): 3.7 (5) μg/ml
Tmax (h) ([7]; Preterm Children (6-22 d)): 6.8 (5) h
% excreted (5 d) ([7]; Preterm Children (6-22 d)): 45.7 (1) %
t1/2 (h) ([7]; Preterm Children (6-22 d), bottom: Sato (1997)): 8.4 (1) h
t1/2 (h) ([7]; Preterm Children (6-22 d), top: Ito (1994)): 11.6 (5) h
efficacy in animal models of seizures [8]: shown efficacy
average number of ulcers ([1]; in vivo): 3.17
